Experimental data: the NIST ThermoML archive (doi:10.1016/j.tca.2015.01.022)
Several values for one entry are separate records, joined by “and”; a condition that tells them apart may be missing. Equal values may be shown once.

Assay: molar heat capacity at constant pressure
Settings: 101.33 kPa, Small (less than 1 g) adiabatic calorimetry

CCOS(=O)(=O)[O-].CCn1cc[n+](C)c1 [1-ethyl-3-methylimidazolium ethyl sulfate]
Settings | molar heat capacity at constant pressure
180.75 K, Glass | 245 J/K/mol
181.34 K, Glass | 247.6 J/K/mol
182.03 K, Glass | 250.7 J/K/mol
182.57 K, Glass | 253.8 J/K/mol
183.25 K, Glass | 259.2 J/K/mol
183.91 K, Glass | 266.1 J/K/mol
184.33 K, Glass | 269.6 J/K/mol
185.05 K, Liquid | 286.4 J/K/mol
185.68 K, Liquid | 306.2 J/K/mol
185.91 K, Liquid | 312.8 J/K/mol
186.66 K, Liquid | 340.5 J/K/mol
187.36 K, Liquid | 351.6 J/K/mol and 351.8 J/K/mol
188.23 K, Liquid | 351.6 J/K/mol
188.86 K, Liquid | 353 J/K/mol
189.2 K, Liquid | 353 J/K/mol
189.84 K, Liquid | 354 J/K/mol
190 K, Liquid | 354.1 J/K/mol
190.38 K, Liquid | 354.4 J/K/mol
191.46 K, Liquid | 354.4 J/K/mol
192.04 K, Liquid | 354.7 J/K/mol
193.08 K, Liquid | 354.7 J/K/mol
193.85 K, Liquid | 354.7 J/K/mol
194.7 K, Liquid | 354.7 J/K/mol
195.65 K, Liquid | 354.9 J/K/mol
196.33 K, Liquid | 354.9 J/K/mol
197.47 K, Liquid | 355.1 J/K/mol
197.95 K, Liquid | 355.1 J/K/mol
199.29 K, Liquid | 355.4 J/K/mol
199.58 K, Liquid | 355.4 J/K/mol
200 K, Liquid | 355.5 J/K/mol
201.11 K, Liquid | 355.6 J/K/mol
201.27 K, Liquid | 355.6 J/K/mol
201.65 K, Liquid | 355.9 J/K/mol
202.93 K, Liquid | 356.1 J/K/mol
203 K, Liquid | 355.9 J/K/mol
203.57 K, Liquid | 356.1 J/K/mol
204.74 K, Liquid | 356.1 J/K/mol
204.76 K, Liquid | 356.6 J/K/mol
205.5 K, Liquid | 356.3 J/K/mol
206.48 K, Liquid | 356.6 J/K/mol
206.59 K, Liquid | 356.8 J/K/mol
207.44 K, Liquid | 356.8 J/K/mol
208.23 K, Liquid | 356.8 J/K/mol
208.43 K, Liquid | 357 J/K/mol
209.37 K, Liquid | 357.3 J/K/mol
209.97 K, Liquid | 357 J/K/mol
210 K, Liquid | 357.2 J/K/mol
210.26 K, Liquid | 357.3 J/K/mol
211.31 K, Liquid | 357.5 J/K/mol
211.72 K, Liquid | 357.5 J/K/mol
212.11 K, Liquid | 357.7 J/K/mol
213.25 K, Liquid | 358 J/K/mol
213.47 K, Liquid | 357.7 J/K/mol
213.95 K, Liquid | 358 J/K/mol
215.19 K, Liquid | 358.2 J/K/mol
215.23 K, Liquid | 358 J/K/mol
215.8 K, Liquid | 358.5 J/K/mol
217.12 K, Liquid | 358.7 J/K/mol
217.65 K, Liquid | 358.7 J/K/mol
219.06 K, Liquid | 359.2 J/K/mol
219.5 K, Liquid | 359.2 J/K/mol
220 K, Liquid | 359.2 J/K/mol
221 K, Liquid | 359.4 J/K/mol
221.36 K, Liquid | 359.6 J/K/mol
222.94 K, Liquid | 359.9 J/K/mol
223.21 K, Liquid | 359.9 J/K/mol
224.88 K, Liquid | 360.3 J/K/mol
225.07 K, Liquid | 360.3 J/K/mol
226.82 K, Liquid | 361.1 J/K/mol
226.93 K, Liquid | 360.8 J/K/mol
228.76 K, Liquid | 361.3 J/K/mol
228.8 K, Liquid | 361.3 J/K/mol
230 K, Liquid | 361.6 J/K/mol
230.66 K, Liquid | 361.8 J/K/mol
230.7 K, Liquid | 361.8 J/K/mol
232.53 K, Liquid | 362.2 J/K/mol
232.64 K, Liquid | 362.2 J/K/mol
234.39 K, Liquid | 362.7 J/K/mol
234.58 K, Liquid | 362.7 J/K/mol
236.26 K, Liquid | 363.2 J/K/mol
236.53 K, Liquid | 363.4 J/K/mol
238.13 K, Liquid | 363.9 J/K/mol
238.47 K, Liquid | 363.9 J/K/mol
240 K, Liquid | 364.3 J/K/mol
240.01 K, Liquid | 364.4 J/K/mol
240.41 K, Liquid | 364.6 J/K/mol
241.88 K, Liquid | 364.8 J/K/mol
242.36 K, Liquid | 365.1 J/K/mol
243.76 K, Liquid | 365.3 J/K/mol
244.3 K, Liquid | 365.5 J/K/mol
245.64 K, Liquid | 365.8 J/K/mol
246.24 K, Liquid | 366.2 J/K/mol
247.52 K, Liquid | 366.5 J/K/mol
248.19 K, Liquid | 366.7 J/K/mol
249.39 K, Liquid | 367 J/K/mol
250 K, Liquid | 367.1 J/K/mol
250.13 K, Liquid | 367.4 J/K/mol
251.27 K, Liquid | 367.4 J/K/mol
252.07 K, Liquid | 367.9 J/K/mol
253.16 K, Liquid | 368.1 J/K/mol
254.02 K, Liquid | 368.6 J/K/mol
255.04 K, Liquid | 368.6 J/K/mol
255.96 K, Liquid | 369.1 J/K/mol
256.92 K, Liquid | 369.1 J/K/mol
257.91 K, Liquid | 369.8 J/K/mol
258.8 K, Liquid | 369.8 J/K/mol
259.85 K, Liquid | 370.3 J/K/mol
260 K, Liquid | 370.1 J/K/mol
260.69 K, Liquid | 370.3 J/K/mol
261.8 K, Liquid | 370.7 J/K/mol
263.74 K, Liquid | 371.4 J/K/mol
265.69 K, Liquid | 372.2 J/K/mol
267.63 K, Liquid | 372.6 J/K/mol
269.58 K, Liquid | 373.3 J/K/mol
270 K, Liquid | 373.3 J/K/mol
271.52 K, Liquid | 373.8 J/K/mol
273.46 K, Liquid | 374.3 J/K/mol
275.41 K, Liquid | 375 J/K/mol
277.35 K, Liquid | 375.7 J/K/mol
279.3 K, Liquid | 376.2 J/K/mol
280 K, Liquid | 376.4 J/K/mol
281.24 K, Liquid | 376.6 J/K/mol
283.19 K, Liquid | 377.4 J/K/mol
285.13 K, Liquid | 378.1 J/K/mol
287.08 K, Liquid | 378.3 J/K/mol
289.02 K, Liquid | 379.2 J/K/mol
290 K, Liquid | 379.6 J/K/mol
290.96 K, Liquid | 380 J/K/mol
292.91 K, Liquid | 380.7 J/K/mol
294.85 K, Liquid | 381.4 J/K/mol
296.79 K, Liquid | 382.1 J/K/mol
298.15 K, Liquid | 382.8 J/K/mol
298.74 K, Liquid | 383 J/K/mol
300 K, Liquid | 383.6 J/K/mol
300.68 K, Liquid | 383.7 J/K/mol
302.62 K, Liquid | 384.7 J/K/mol
304.57 K, Liquid | 385.4 J/K/mol
306.51 K, Liquid | 386.3 J/K/mol
308.45 K, Liquid | 387.3 J/K/mol
310 K, Liquid | 388 J/K/mol
310.39 K, Liquid | 388 J/K/mol
312.34 K, Liquid | 388.9 J/K/mol
314.28 K, Liquid | 389.6 J/K/mol
316.22 K, Liquid | 390.6 J/K/mol
318.17 K, Liquid | 391.5 J/K/mol
320 K, Liquid | 392.6 J/K/mol
320.11 K, Liquid | 392.5 J/K/mol
322.05 K, Liquid | 393.7 J/K/mol
324 K, Liquid | 394.4 J/K/mol
325.94 K, Liquid | 395.3 J/K/mol
327.89 K, Liquid | 396.3 J/K/mol
329.83 K, Liquid | 397.2 J/K/mol
330 K, Liquid | 397.3 J/K/mol
331.77 K, Liquid | 398.1 J/K/mol
333.72 K, Liquid | 399.1 J/K/mol
335.66 K, Liquid | 400.3 J/K/mol
337.61 K, Liquid | 401.5 J/K/mol
339.55 K, Liquid | 402.2 J/K/mol
340 K, Liquid | 402.3 J/K/mol
341.5 K, Liquid | 403.1 J/K/mol
343.44 K, Liquid | 404.3 J/K/mol
345.39 K, Liquid | 405 J/K/mol
347.33 K, Liquid | 405.9 J/K/mol
349.28 K, Liquid | 407.1 J/K/mol
350 K, Liquid | 407.5 J/K/mol
351.22 K, Liquid | 408.1 J/K/mol
353.17 K, Liquid | 409.3 J/K/mol
355.11 K, Liquid | 410.2 J/K/mol
357.06 K, Liquid | 411.1 J/K/mol
359 K, Liquid | 412.1 J/K/mol
360 K, Liquid | 412.8 J/K/mol
360.94 K, Liquid | 413.3 J/K/mol
362.88 K, Liquid | 414.2 J/K/mol
364.83 K, Liquid | 415.2 J/K/mol
366.77 K, Liquid | 416.3 J/K/mol
370 K, Liquid | 418.4 J/K/mol
